Assay results taken from PMC3681807 (Neuropharmacology, 2013).
pIC50, pKi: −log10 of the molar value. “Also recorded” adds a separate entry of the source. Read-outs that look alike come from different tables or passages of the source.

How the values were obtained:
Male Wistar rats [1] = test: intravenous self-administration acquisition; format: in vivo, rat; settings: for infusion rate (M) / lever discrimination (M): 0.05 mg/kg/inf, FR5, 7 non-food-restricted sessions; for self-administered drug, Max / self-administered drug, Mean: 0.05 mg/kg/infusion i.v., within 10 training sessions; for level of drug intake from session to session: during acquisition
Male Wistar rats [2] = test: fixed-ratio; format: in vivo, rat
Male Wistar rats [3] = test: progressive-ratio dose-response self-administration testing; format: in vivo, rat; settings: for number of correct lever presses (M) / post-reinforcement pause duration (M) / time to reach breakpoint: PR; for number of correct lever presses (M) / post-reinforcement pause duration (M): 1st 3 hours of session
Male Wistar rats [4] = test: locomotor activity by radiotelemetry after non-contingent s.c. administration; format: in vivo, rat; settings: for maximal increase of activity over baseline and/or vehicle: lower doses
Male Wistar rats [5] = test: body temperature by radiotelemetry after non-contingent s.c. administration; format: in vivo, rat; settings: for effect on body temperature: 0–5.6 mg/kg s.c., MDPV at TA about 23 °C
Male Wistar rats [6] = test: stereotypy after self-administration sessions; format: in vivo, rat; settings: FR5 dose-response testing
Male Wistar rats [7] = test: stereotypy scores after non-contingent administration; format: in vivo, rat
[8] = system: dopamine transporter (DAT); settings: rat synaptosomes; ref Baumann et al., 2013; cited from earlier work
[9] = system: noradrenaline transporter (NET); settings: rat synaptosomes; ref Baumann et al., 2013; cited from earlier work
[10] = system: serotonin transporter (SERT); settings: rat synaptosomes; ref Baumann et al., 2013; cited from earlier work
[11] = system: dopamine transporter (DAT); settings: human transporters expressed by HEK 293 cells; ref Simmler et al., 2013; cited from earlier work
[12] = system: noradrenaline transporter (NET); settings: human transporters expressed by HEK 293 cells; ref Simmler et al., 2013; cited from earlier work
[13] = system: serotonin transporter (SERT); settings: human transporters expressed by HEK 293 cells; ref Simmler et al., 2013; cited from earlier work
DAT/SERT = settings: ref Simmler et al., 2013; cited from earlier work
monoamine release = settings: ref Baumann et al., 2013, Simmler et al.; cited from earlier work
Sprague-Dawley rats = settings: s.c.; ref Baumann et al., 2013; cited from earlier work
mice = settings: i.p.; ref Marusich et al., 2012; cited from earlier work
[14] = target: noradrenergic transporter (Homo sapiens, UniProt P23975); test: biochemical
Sequence of noradrenergic transporter (P23975 whole entry): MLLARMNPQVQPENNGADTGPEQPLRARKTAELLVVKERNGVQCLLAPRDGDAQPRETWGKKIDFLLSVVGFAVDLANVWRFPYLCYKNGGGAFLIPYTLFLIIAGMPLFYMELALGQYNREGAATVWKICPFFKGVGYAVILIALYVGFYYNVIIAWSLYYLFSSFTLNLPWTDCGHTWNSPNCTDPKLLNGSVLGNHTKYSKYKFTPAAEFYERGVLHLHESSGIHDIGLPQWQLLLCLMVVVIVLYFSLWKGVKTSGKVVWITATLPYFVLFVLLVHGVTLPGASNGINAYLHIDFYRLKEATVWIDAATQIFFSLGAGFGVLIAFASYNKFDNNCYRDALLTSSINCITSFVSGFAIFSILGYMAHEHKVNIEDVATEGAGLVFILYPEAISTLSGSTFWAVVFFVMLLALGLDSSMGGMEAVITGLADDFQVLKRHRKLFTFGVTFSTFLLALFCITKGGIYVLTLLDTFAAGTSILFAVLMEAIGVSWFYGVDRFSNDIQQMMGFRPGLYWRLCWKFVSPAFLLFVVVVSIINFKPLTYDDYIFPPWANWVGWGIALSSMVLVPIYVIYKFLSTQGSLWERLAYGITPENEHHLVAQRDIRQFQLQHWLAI

serotonin transporter = serotonin transporter (Homo sapiens, UniProt P31645); test: biochemical
Sequence of serotonin transporter (P31645 whole entry): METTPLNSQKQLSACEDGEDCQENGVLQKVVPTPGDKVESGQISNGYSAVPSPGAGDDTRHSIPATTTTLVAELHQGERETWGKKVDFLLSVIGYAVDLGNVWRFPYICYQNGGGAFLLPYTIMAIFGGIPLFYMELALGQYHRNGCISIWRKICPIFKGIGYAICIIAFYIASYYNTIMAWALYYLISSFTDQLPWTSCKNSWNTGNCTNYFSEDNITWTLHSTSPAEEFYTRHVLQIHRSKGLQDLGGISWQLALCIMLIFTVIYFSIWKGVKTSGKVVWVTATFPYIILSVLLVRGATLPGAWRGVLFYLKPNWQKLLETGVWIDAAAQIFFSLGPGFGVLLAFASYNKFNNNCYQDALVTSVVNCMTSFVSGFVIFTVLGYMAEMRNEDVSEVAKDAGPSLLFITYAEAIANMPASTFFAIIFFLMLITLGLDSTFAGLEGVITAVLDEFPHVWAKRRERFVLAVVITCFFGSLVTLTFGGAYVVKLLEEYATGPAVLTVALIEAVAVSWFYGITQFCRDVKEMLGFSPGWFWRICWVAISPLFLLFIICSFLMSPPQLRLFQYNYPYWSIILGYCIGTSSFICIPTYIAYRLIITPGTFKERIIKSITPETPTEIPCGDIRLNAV

[15] = system: alpha adrenergic receptors; settings: ref Roth et al., 2000, Rothman et al., 2001, 2003; cited from earlier work
[16] = FR5, per-infusion dose 0.01 mg/kg
[17] = FR5, per-infusion dose 0.05 mg/kg
[18] = FR5, per-infusion dose 0.10 mg/kg
[19] = FR5, per-infusion dose 0.50 mg/kg
[20] = 1.0 mg/kg s.c., MDPV 30- and 60-min bins, METH 30-, 90- and 120-min bins
[21] = 5.6 mg/kg s.c., summed deviations from mean of vehicle
[22] = 1.0 mg/kg s.c., MDPV 180-min bin, METH 30- to 120-min bins
[23] = FR5, per-infusion dose 0.25 mg/kg

CCCC(C(=O)c1ccc2c(c1)OCO2)N1CCCC1 (centres unmarked) [MDPV, 1-(1,3-benzodioxol-5-yl)-2-(1-pyrrolidinyl)-1-pentanone]
infusion rate (M) (Male Wistar rats [1]): 19 inf/hr
lever discrimination (M) (Male Wistar rats [1]): 86%
self-administered drug, Max (Male Wistar rats [1]): 5.8 mg/kg/h
self-administered drug, Mean (Male Wistar rats [1]): 0.9 mg/kg/h
level of drug intake from session to session (Male Wistar rats [1]): ~ 1 mg/kg/hr
reward-lever selectivity (Male Wistar rats [1]; for most rats): > 80%
infusion rate (M) (Male Wistar rats [2]; [16]): 35 infusions/hour
post-reinforcement pause length (M) (Male Wistar rats [2]; [16]): 48 s
infusion rate (M) (Male Wistar rats [2]; [17]): 13 infusions/hour
post-reinforcement pause length (M) (Male Wistar rats [2]; [17]): 107 s
infusion rate (M) (Male Wistar rats [2]; [18]): 8 infusions/hour
post-reinforcement pause length (M) (Male Wistar rats [2]; [18]): 223 s
infusion rate (M) (Male Wistar rats [2]; [19]): 4 infusions/hour
post-reinforcement pause length (M) (Male Wistar rats [2]; [19]): 572 s
potency on drug-reinforced behavior compared with METH (Male Wistar rats [2]; more responding under lowest dose under fixed-ratio schedule): greater potency
number of correct lever presses (M) (Male Wistar rats [3]; per-infusion dose 0.01 mg/kg): 53
post-reinforcement pause duration (M) (Male Wistar rats [3]; per-infusion dose 0.01 mg/kg): 225 s
number of correct lever presses (M) (Male Wistar rats [3]; per-infusion dose 0.05 mg/kg): 610
post-reinforcement pause duration (M) (Male Wistar rats [3]; per-infusion dose 0.05 mg/kg): 110 s
number of correct lever presses (M) (Male Wistar rats [3]; per-infusion dose 0.10 mg/kg): 933
post-reinforcement pause duration (M) (Male Wistar rats [3]; per-infusion dose 0.10 mg/kg): 179 s
number of correct lever presses (M) (Male Wistar rats [3]; per-infusion dose 0.50 mg/kg): 286
post-reinforcement pause duration (M) (Male Wistar rats [3]; per-infusion dose 0.50 mg/kg): 820 s
time to reach breakpoint (Male Wistar rats [3]; per-infusion dose 0.5 mg/kg, all except 2 sessions): ≤ 5 h
time to reach breakpoint (Male Wistar rats [3]; per-infusion doses at or below 0.1 mg/kg, all rats): less than 3 hrs
efficacy on drug-reinforced behavior compared with METH (Male Wistar rats [3]; more responding under optimal dose under a progressive-ratio schedule): greater efficacy
locomotor activity compared with vehicle (Male Wistar rats [4]; [20]): higher
AUC for activity, MDPV vs METH (Male Wistar rats [4]; [21]): significantly higher for MDPV than METH
resolution of high-dose suppression of locomotion (Male Wistar rats [4]): 120–150 minutes post-injection
duration of significant low-dose locomotor stimulation (Male Wistar rats [4]): 90 minutes post-injection
maximal increase of activity over baseline and/or vehicle (Male Wistar rats [4]): about 4 fold
effect on body temperature (Male Wistar rats [5]): modestly hyper-thermic; also recorded: negligible effect on temperature
body temperature compared to pre-injection baseline (Male Wistar rats [5]; [22]): higher
effect on rat body temperature at TA of 30°C (Male Wistar rats [5]; additional data, not shown): fails to significantly elevate rat body temperature
body temperature after 1.0 mg/kg compared with 5.6 mg/kg (Male Wistar rats [5]; s.c., TA 23±1 °C, 180-min post-injection time bin): higher
average cumulative dose when post-session stereotypy was not observed (M) (Male Wistar rats [6]): 0.6 mg/kg per one hour session
average cumulative dose when post-session stereotypy was observed (M) (Male Wistar rats [6]): 1.4 mg/kg per one hour session
time for which stereotypy scores were higher than vehicle (Male Wistar rats [7]; 0.5 mg/kg s.c.): 15 min
time for which stereotypy scores were higher than baseline (Male Wistar rats [7]; 0.5 mg/kg s.c., baseline immediately post-injection): 15 min
time for which stereotypy scores were higher than vehicle (Male Wistar rats [7]; 1.0 mg/kg s.c.): 60 min
time for which stereotypy scores were higher than baseline (Male Wistar rats [7]; 1.0 mg/kg s.c., baseline immediately post-injection): 60 min
time for which stereotypy scores were higher than vehicle (Male Wistar rats [7]; 3.2 mg/kg s.c.): entire session
time bins in which stereotypy scores were higher than baseline (Male Wistar rats [7]; 3.2 mg/kg s.c., baseline immediately post-injection): 15 to 135 min
time for which stereotypy scores were higher than vehicle (Male Wistar rats [7]; 5.6 mg/kg s.c.): entire session
pIC50 [8]: 8.39
pIC50 [9]: 7.59
pIC50 [10]: 5.48
pIC50 [11]: 7.51
pIC50 [12]: 7.36
pIC50 [13]: 5.03
DAT/SERT inhibition ratio (DAT/SERT): > 100
activity as monoamine releaser (monoamine release): ineffective as a monoamine releaser
doses at which stereotypies were reported (Sprague-Dawley rats): above 0.3 mg/kg
doses after which stereotypies are exhibited (mice): 1 to 3 mg/kg
pKi [14]: 6.78
pKi (serotonin transporter): 5.81

COC(=O)[C@H]1[C@@H](OC(=O)c2ccccc2)C[C@@H]2CC[C@H]1N2C [cocaine]
DAT/SERT inhibition ratio (DAT/SERT): 3.1

CN[C@@H](C)Cc1ccccc1 [METH, d-methamphetamine, reference compound]
infusion rate (M) (Male Wistar rats [1]): 8 inf/hr
lever discrimination (M) (Male Wistar rats [1]): 83%
self-administered drug, Max (Male Wistar rats [1]): 1.15 mg/kg/h
self-administered drug, Mean (Male Wistar rats [1]): 0.4 mg/kg/h
level of drug intake from session to session (Male Wistar rats [1]): ~ 0.5 mg/kg/hr
infusion rate (M) (Male Wistar rats [2]; [16]): 8 infusions/hour
post-reinforcement pause length (M) (Male Wistar rats [2]; [16]): 94 s
infusion rate (M) (Male Wistar rats [2]; [17]): 6 infusions/hour
post-reinforcement pause length (M) (Male Wistar rats [2]; [17]): 106 s
infusion rate (M) (Male Wistar rats [2]; [18]): 5 infusions/hour
post-reinforcement pause length (M) (Male Wistar rats [2]; [18]): 170 s
infusion rate (M) (Male Wistar rats [2]; [23]): 4 infusions/hour
post-reinforcement pause length (M) (Male Wistar rats [2]; [23]): 162 s
number of correct lever presses (M) (Male Wistar rats [3]; per-infusion dose 0.01 mg/kg): 60
post-reinforcement pause duration (M) (Male Wistar rats [3]; per-infusion dose 0.01 mg/kg): 276 s
number of correct lever presses (M) (Male Wistar rats [3]; per-infusion dose 0.05 mg/kg): 74
post-reinforcement pause duration (M) (Male Wistar rats [3]; per-infusion dose 0.05 mg/kg): 103 s
number of correct lever presses (M) (Male Wistar rats [3]; per-infusion dose 0.10 mg/kg): 250
post-reinforcement pause duration (M) (Male Wistar rats [3]; per-infusion dose 0.10 mg/kg): 113 s
number of correct lever presses (M) (Male Wistar rats [3]; per-infusion dose 0.25 mg/kg): 135
post-reinforcement pause duration (M) (Male Wistar rats [3]; per-infusion dose 0.25 mg/kg): 490 s
locomotor activity compared with vehicle (Male Wistar rats [4]; [20]): higher
locomotor activity compared with vehicle (Male Wistar rats [4]; 5.6 mg/kg s.c., 60–150-min post-injection time bins): lower
resolution of high-dose suppression of locomotion (Male Wistar rats [4]): 150–180 minutes post-injection
duration of significant low-dose locomotor stimulation (Male Wistar rats [4]): 120 minutes post-injection
maximal increase of activity over baseline and/or vehicle (Male Wistar rats [4]): about 4 fold
effect on body temperature (Male Wistar rats [5]): increased monotonically
body temperature compared to pre-injection baseline (Male Wistar rats [5]; [22]): higher
body temperature compared to vehicle (Male Wistar rats [5]; 5.6 mg/kg s.c., 60- to 150-min time bins): higher
body temperature compared to pre-injection baseline (Male Wistar rats [5]; 5.6 mg/kg s.c., 60- to 90-min post-injection time bins): higher
AUC for body temperature, METH vs MDPV (Male Wistar rats [5]; [21]): higher for METH than for MDPV
average body temperature as a function of dose (Male Wistar rats [5]; 20±2 °C TA): did not vary as a function of drug condition
average body temperature as a function of dose (Male Wistar rats [5]; TA of 25±2 °C, doses in mg/kg s.c.): 5.6 > 1.0 > vehicle
DAT/SERT inhibition ratio (DAT/SERT): > 10
binding affinity [15]: low affinity binding
